Assay results reported in patent publication US6040320A, “2-substituted imidazoles useful in the treatment of inflammatory diseases” (Ortho-McNeil Pharmaceutical, Inc., priority 1998, dated 2000).

Tested on: TNF-α
Assay: in vitro whole cell assay: LPS-stimulated TNF-α production in PBMC (ELISA)
Type: cell-based, human
Settings: Homo sapiens, PBMC, read-out: TNF-α IC50
Experimental: In addition to the enzyme assay, the compounds of the invention were tested in an in vitro whole cell assay using peripheral blood mononuclear cells ("PBMC") which were obtained from human blood as follows. Freshly obtained venous blood was anticoagulated with heparin, diluted with an equal volume of phosphate buffered saline ("PBS") and placed in a sterile tube or other container. Aliquots (30 mL) of this mixture were transferred to centrifuge tubes which were underlaid with Ficoll-Hypaque (15 mL). The prepared tubes were centrifuged at 400×g without braking for 30 min at room temperature. Approximately 1/2 to 2/3 of the platelet layer above the mononuclear cell band was removed with a pipet. The majority of the mononuclear cell layer was carefully removed using a pipet and these PBMCs were diluted with PBS and spun at 600×g for 15 min. The resulting PBMCs were washed with another portion of PBS and spun at 400×g for 10 min at room temperature. The recovered pellets were diluted in low endotoxin RPMI/1% FCS culture medium and gave a cell concentration of 0.5-2.0 X 10^6 PMBC/mL. A small volume of the suspension was removed for counting on a hemocytometer and the remaining preparation was centrifuged at 200×g for 15 min at room temperature. The recovered pelleted PMBC were resuspended in RPMI/1% FCS to a concentration of 1.67×10^6 /mL.
To run the assay, the PBMC suspension (180 μL) was transferred to duplicate wells of a 96-well flat-bottom microtiter plate and incubated for 1 h at 37° C. A solution of test compound (10 μL: prepared at 20×the desired final concentration) was added to each well and the plate was incubated for 1 h at 37° C. A solution (10 μL) of LPS in RPMI/1% FCS (200 ng/mL) was added and the wells were incubated overnight at 37° C. The supernate (100 μL) was removed from each well and diluted with RPMI/1% FCS (400 μL). The samples were analyzed for TNF-α using a commercial ELISA kit (Genzyme). […] Since imidazoles which are unsubstituted at the 1-position are subject to tautomerization, the substituents listed for R1 and R2 are interchangeable when R3 is hydrogen.

Going from `CC(=O)OCCCCc1nc(-c2ccc(F)cc2)c(-c2ccncc2)n1COCC[Si](C)(C)C` [Compound 44] to `C[Si](C)(C)CCOCn1c(C(=O)CCCO)nc(-c2ccncc2)c1-c1ccc(F)cc1` [Compound 9, 4-Hydroxy-1-[5-(4-fluorophenyl)-4-(4-pyridyl)-1-(2-(trimethylsilyl)ethoxymethyl)imidazol-2-yl]butanone], the IC50 rises from 150 nM to greater than 10000 nM.

Same assay, conditions: human PBMC, LPS; read-out: TNF-α IC50

Compared with `Fc1ccc(-c2ncn(CCOc3ccccc3)c2-c2ccncc2)cc1` [Compound 86], `Fc1ccc(-c2c(-c3ccncc3)ncn2CCOc2ccccc2)cc1` [Compound 85] is 50-fold higher in IC50: 40 nM for the first, 2000 nM for the second. The first is the more potent here.

First: Fc1ccc(-c2c(-c3ccncc3)ncn2CCCc2ccncc2)cc1 [Compound 83]
Second: Fc1ccc(-c2ncn(CCCc3ccncc3)c2-c2ccncc2)cc1 [Compound 84]
The IC50 of the first is 100-fold higher: 1000 nM for the first, 10 nM for the second. The second is the more potent here.

Going from `O=C1c2ccccc2C(=O)N1CCSCc1nc(-c2ccc(F)cc2)c(-c2ccncc2)[nH]1` [Compound 33] to `Cc1nc(-c2ccncc2)c(-c2ccc(F)cc2)n1CCCN1C(=O)c2ccccc2C1=O` [Compound 63], the IC50 falls from 200 nM to 17 nM (12-fold). The second is the more potent here.

First: O=C1c2ccccc2C(=O)N1CCCn1c(CO)nc(-c2ccncc2)c1-c1ccc(F)cc1 [Compound 55]
Second: O=C1c2ccccc2C(=O)N1CCCn1c(CCCCO)nc(-c2ccncc2)c1-c1ccc(F)cc1 [Compound 52]
The IC50 of the first is 6.2-fold higher: 1250 nM for the first, 200 nM for the second.

Compared with `Cc1nc(-c2ccncc2)c(-c2ccc(F)cc2)n1CCCc1ccccc1` [Compound 69], `Cc1nc(-c2ccc(F)cc2)c(-c2ccncc2)n1CCCc1ccccc1` [Compound 68] is 67-fold lower in IC50: 100 nM for the first, 1.5 nM for the second.

`CS(=O)(=O)NCCCSc1nc(-c2ccc(F)cc2)c(-c2ccncc2)[nH]1` [Compound 32] and `CC(=O)NCCCSc1nc(-c2ccc(F)cc2)c(-c2ccncc2)[nH]1` [Compound 34] are within 1.5-fold of each other in IC50: 150 nM for the first, 200 nM for the second.

First: CCCSCc1nc(-c2ccc(F)cc2)c(-c2ccncc2)[nH]1 [Compound 35]
Second: OCc1nc(-c2ccc(F)cc2)c(-c2ccncc2)[nH]1 [Compound 49]
The IC50 of the first is 8.3-fold lower: 30 nM for the first, 250 nM for the second. The first is the more potent here.

`CCOCCc1nc(-c2ccc(F)cc2)c(-c2ccncc2)n1CCCN1C(=O)c2ccccc2C1=O` [Compound 61] and `O=C1c2ccccc2C(=O)N1CCCn1c(CCCCO)nc(-c2ccc(F)cc2)c1-c1ccncc1` [Compound 51] are within 1.5-fold of each other in IC50: 200 nM for the first, 175 nM for the second.

`O=C1c2ccccc2C(=O)N1CCCOCc1nc(-c2ccc(F)cc2)c(-c2ccncc2)n1CCCN1C(=O)c2ccccc2C1=O` [Compound 53] and `O=C1c2ccccc2C(=O)N1CCCOCc1nc(-c2ccncc2)c(-c2ccc(F)cc2)n1CCCN1C(=O)c2ccccc2C1=O` [Compound 54] are within 1.5-fold of each other in IC50: 175 nM for the first, 200 nM for the second.

Going from `CCc1nc(-c2ccc(F)cc2)c(-c2ccncc2)n1CCCc1ccccc1` [Compound 66] to `CCc1nc(-c2ccncc2)c(-c2ccc(F)cc2)n1CCCc1ccccc1` [Compound 67], the IC50 rises from 6 nM to 300 nM (50-fold).

First: O=C(NCCCSc1nc(-c2ccc(F)cc2)c(-c2ccncc2)[nH]1)c1ccc2ccccc2c1 [Compound 31]
Second: CCCCCCCCCCSc1nc(-c2ccc(F)cc2)c(-c2ccncc2)[nH]1 [Compound 41]
The IC50 of the first is lower: 275 nM for the first, greater than 10000 nM for the second. The first is the more potent here.

First: CC(=O)OCCCCc1nc(-c2ccc(F)cc2)c(-c2ccncc2)n1CCCN1C(=O)c2ccccc2C1=O [Compound 50]
Second: Cc1nc(-c2ccc(F)cc2)c(-c2ccncc2)n1CCCN1C(=O)c2ccccc2C1=O [Compound 62]
The IC50 of the first is 2.4-fold lower: 150 nM for the first, 362 nM for the second. The first is the more potent here.

First: CCCS(=O)(=O)Cc1nc(-c2ccncc2)c(-c2ccc(F)cc2)n1COCC[Si](C)(C)C [Compound 57]
Second: CCC(=O)Cn1cnc(-c2ccncc2)c1-c1ccc(F)cc1 [Compound 79]
The IC50 of the first is 8.3-fold higher: 5000 nM for the first, 600 nM for the second. The second is the more potent here.

Compared with `O=C1c2ccccc2C(=O)N1CCCCn1cnc(-c2ccc(F)cc2)c1-c1ccncc1` [Compound 73], `O=C1c2ccccc2C(=O)N1CCCCn1c(I)nc(-c2ccncc2)c1-c1ccc(F)cc1` [Compound 76] is 1.6-fold higher in IC50: 500 nM for the first, 800 nM for the second. The first is the more potent here.

Compared with `Fc1ccc(-c2ncn(CCCc3cccnc3)c2-c2ccncc2)cc1` [Compound 82], `O=C1c2ccccc2C(=O)N1CCCCn1c(I)nc(-c2ccc(F)cc2)c1-c1ccncc1` [Compound 77] is 22-fold higher in IC50: 20 nM for the first, 445 nM for the second. The first is the more potent here.
